# Measurements as given in US20070155764A1, “NOVEL SUBSTITUTED PYRIMIDINYLOXY UREAS USEFUL AS INHIBITORS OF PROTEIN KINASES” (KALYPSYS, INC., priority 2005, published 2007).
# Assays:
# Type in all cases: biochemical
# [1] = molecular target: T1, human B-Raf protein kinase (Homo sapiens, UniProt P15056); assay: In vitro B-Raf/Mek1 composite kinase assay; conditions: recombinant GST-tagged human B-Raf (Δ1-415) with inactive Mek1, 2 μM ATP
# T1 construct: GST (N); purchased Upstate Inc. 14-530 (B-Raf); 14-420 (Mek1)
# T1 sequence (P15056 416-766): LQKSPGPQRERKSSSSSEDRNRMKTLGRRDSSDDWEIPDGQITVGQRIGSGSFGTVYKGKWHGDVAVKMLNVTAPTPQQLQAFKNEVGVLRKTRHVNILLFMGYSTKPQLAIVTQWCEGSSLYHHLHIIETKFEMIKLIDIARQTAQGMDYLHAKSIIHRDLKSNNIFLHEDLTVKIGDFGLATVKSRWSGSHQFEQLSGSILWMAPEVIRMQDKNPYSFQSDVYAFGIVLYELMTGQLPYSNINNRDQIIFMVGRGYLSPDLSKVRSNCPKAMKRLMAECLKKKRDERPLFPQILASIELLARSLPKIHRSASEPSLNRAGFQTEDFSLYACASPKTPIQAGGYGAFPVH
# Method: In Vitro B-Raf/Mek1 Composite Kinase Assay
# 2.5 μl of B-Raf kinase buffer (20 mM MOPS [pH 7.2], 25 mM sodium glycerophosphate, 2 mM EGTA [pH 8.0], 1 mM sodium orthovanadate, 1 mM dithiothreitol, 10 mM MgCl2, 0.03% Brij-35, 0.3 mg/ml bovine serum albumin) containing 1 ng of recombinant, N-terminal GST-tagged human B-Raf protein kinase (Δ1-415, Upstate Inc., cat. #14-530) is dispensed to wells of a 1536 multi-well white solid plate. 60 nl of 100× concentration of test compound in DMSO is dispensed to the well by passive pin transfer and incubated for 15 minutes at room temperature (approx. 22° C.). […] The assay plates are sealed and maintained in a humidified environment. After 2 hours, 2.5 μl of PKLight protein kinase assay reagent (Cambrex, cat. #LT07-501) is dispensed. After an additional 5 minute incubation at room temperature, luminescence activity is measured on a Molecular Devices Analyst multi-mode plate reader or other suitable plate reader. Kinase inhibition results in less ATP depletion, and therefore increased luminescence signal. Negative control activity is measured with DMSO lacking any test compound. The positive control is [N-(3-trifluoromethyl-4-chlorophenyl)-N′-(4-(2-methylcarbamoyl-pyridin-4-yl)oxyphenyl)urea], aka Bay 43-9006. Efficacy is measured as a percentage of positive control activity.
# PDGFRβ kinase = molecular target: T2, PDGFRβ kinase (Homo sapiens, UniProt P09619); assay: In vitro PDGFRβ kinase assay; conditions: ADP Quest assay, poly Glu:Tyr substrate, 60 μM ATP
# T2 construct: purchased Invitrogen Inc. P3082
# T2 sequence (P09619 33-1106): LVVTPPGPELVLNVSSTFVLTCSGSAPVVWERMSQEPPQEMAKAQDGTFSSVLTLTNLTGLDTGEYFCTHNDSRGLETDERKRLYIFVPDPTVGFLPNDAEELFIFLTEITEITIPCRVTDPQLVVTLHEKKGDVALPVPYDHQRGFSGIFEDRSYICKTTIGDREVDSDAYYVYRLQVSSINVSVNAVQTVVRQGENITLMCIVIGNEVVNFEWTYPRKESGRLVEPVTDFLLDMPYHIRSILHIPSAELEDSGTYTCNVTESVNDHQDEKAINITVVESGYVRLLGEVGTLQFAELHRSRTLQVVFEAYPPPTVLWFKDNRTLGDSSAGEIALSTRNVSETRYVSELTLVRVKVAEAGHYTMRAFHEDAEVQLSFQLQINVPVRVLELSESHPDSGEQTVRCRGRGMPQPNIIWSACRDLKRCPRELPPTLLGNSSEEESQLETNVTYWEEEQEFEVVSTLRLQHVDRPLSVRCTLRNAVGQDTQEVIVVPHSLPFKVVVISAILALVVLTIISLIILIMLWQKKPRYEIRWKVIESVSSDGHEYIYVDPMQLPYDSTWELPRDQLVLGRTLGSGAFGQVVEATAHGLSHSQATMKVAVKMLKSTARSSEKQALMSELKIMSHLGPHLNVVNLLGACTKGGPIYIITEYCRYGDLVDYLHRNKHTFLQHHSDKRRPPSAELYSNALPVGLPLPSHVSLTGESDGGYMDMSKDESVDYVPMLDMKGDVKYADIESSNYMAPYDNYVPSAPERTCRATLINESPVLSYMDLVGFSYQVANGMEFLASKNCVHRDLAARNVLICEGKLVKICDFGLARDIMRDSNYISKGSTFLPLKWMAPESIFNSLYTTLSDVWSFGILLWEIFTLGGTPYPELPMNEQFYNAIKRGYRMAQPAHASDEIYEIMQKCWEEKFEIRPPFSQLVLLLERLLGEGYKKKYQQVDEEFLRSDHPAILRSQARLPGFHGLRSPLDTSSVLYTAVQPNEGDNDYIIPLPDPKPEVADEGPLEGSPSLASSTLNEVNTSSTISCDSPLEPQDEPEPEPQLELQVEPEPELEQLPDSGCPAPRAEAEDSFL
# Method: (§1) In vitro vegfr2 and PDGFRβ Kinase Assays
# (§2) 2.5 μl of ADP Quest assay buffer (DiscoverX Inc., cat. #90-0071) containing 20 ng VEGFR2 kinase (Invitrogen Inc, cat. #PV3660) or 25 ng PDGFRβ kinase (Invitrogen Inc., cat. #P3082) is dispensed to wells of a 1536 multi-well, black solid plate. 60 nl of 100× concentration of test compound in DMSO is dispensed to the well by passive pin transfer and incubated for 10 minutes at room temperature (approx. 22° C.). 2.5 μl of ADP Quest assay buffer containing 0.25 μg of poly Glu:Tyr (4:1) substrate peptide (Upstate Inc., cat. #12-440) and 60 μM ATP is then dispensed and the kinase reaction allowed to incubate at 30° C. for 2 hours. The assay plates are sealed and maintained in a humidified environment. After the 2 hour incubation, 2 μl of ADP Quest assay reagent A, followed by 2 μl of assay reagent B, is added. After an additional 30 minute incubation at room temperature, fluorescence intensity is measured on a Molecular Devices Aquest multi-mode plate reader or other suitable plate reader (fluorescence excitation filter: 530/25 [Peak (nm)/FWHM passband (nm)]; dichroic beamsplitter: 561 nm longpass; fluorescence emission filter: 580/10 [Peak (nm)/FWHM passband (nm)]. The assay measures the conversion of a non-fluoresecent molecule to fluorescent resorutin, which correlates with kinase activity. Negative control activity is measured with DMSO lacking any test compound. The positive control is [N-(3-trifluoromethyl-4-chlorophenyl)-N′-(4-(2-methylcarbamoyl-pyridin-4-yl)oxyphenyl)urea], aka Bay 43-9006. Efficacy is measured as a percentage of positive control activity.
# VEGFR2 kinase = molecular target: T3, VEGFR2 kinase (Homo sapiens, UniProt P35968); assay: In vitro VEGFR2 kinase assay; conditions: ADP Quest assay, poly Glu:Tyr substrate, 60 μM ATP
# T3 construct: purchased Invitrogen Inc PV3660
# T3 sequence (P35968 20-1356): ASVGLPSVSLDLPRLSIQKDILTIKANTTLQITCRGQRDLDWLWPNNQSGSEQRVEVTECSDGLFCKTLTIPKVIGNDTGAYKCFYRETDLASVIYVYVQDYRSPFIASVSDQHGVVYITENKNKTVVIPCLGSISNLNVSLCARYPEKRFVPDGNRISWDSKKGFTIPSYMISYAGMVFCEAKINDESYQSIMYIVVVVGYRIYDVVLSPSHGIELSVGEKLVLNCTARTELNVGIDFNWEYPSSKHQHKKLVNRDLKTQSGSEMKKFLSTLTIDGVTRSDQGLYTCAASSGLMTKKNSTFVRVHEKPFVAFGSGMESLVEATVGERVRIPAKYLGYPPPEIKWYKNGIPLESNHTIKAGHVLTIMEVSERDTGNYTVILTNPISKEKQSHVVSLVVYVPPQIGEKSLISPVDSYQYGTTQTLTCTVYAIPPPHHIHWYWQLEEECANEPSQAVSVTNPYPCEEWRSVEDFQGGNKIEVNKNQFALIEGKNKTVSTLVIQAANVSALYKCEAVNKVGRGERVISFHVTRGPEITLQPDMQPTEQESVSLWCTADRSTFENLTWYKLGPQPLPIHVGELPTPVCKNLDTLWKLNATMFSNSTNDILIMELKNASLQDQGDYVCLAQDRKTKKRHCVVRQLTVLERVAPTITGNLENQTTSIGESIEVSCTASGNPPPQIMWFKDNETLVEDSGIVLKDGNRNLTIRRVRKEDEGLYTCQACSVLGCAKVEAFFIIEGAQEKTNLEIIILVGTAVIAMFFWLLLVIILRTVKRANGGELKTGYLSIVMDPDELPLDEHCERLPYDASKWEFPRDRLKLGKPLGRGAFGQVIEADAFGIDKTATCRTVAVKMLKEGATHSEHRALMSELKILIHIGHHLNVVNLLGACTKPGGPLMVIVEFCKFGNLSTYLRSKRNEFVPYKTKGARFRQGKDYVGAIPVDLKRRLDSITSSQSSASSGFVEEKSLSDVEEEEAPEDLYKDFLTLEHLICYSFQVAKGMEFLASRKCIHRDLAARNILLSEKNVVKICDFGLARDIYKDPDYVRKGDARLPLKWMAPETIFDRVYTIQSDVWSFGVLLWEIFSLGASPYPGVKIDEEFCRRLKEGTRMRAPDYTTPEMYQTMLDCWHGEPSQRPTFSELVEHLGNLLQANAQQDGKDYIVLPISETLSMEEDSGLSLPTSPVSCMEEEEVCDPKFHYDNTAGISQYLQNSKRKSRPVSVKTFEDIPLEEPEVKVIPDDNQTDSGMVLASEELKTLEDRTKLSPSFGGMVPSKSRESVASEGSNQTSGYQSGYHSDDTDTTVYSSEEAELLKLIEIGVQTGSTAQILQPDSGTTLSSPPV
# Method: as §1, §2
IC50 [1],IC50 (PDGFRβ kinase),IC50 (VEGFR2 kinase),Compound
≤ 10 µM,≤ 10 µM,≤ 10 µM,"Cc1nc(-c2cc(Oc3cccc(NC(=O)Nc4ccc(Cl)c(C(F)(F)F)c4)c3)ncn2)cs1 [Example 46, 1-(4-Chloro-3-(trifluoromethyl)phenyl)-3-(3-(6-(2-methylthiazol-4-yl)pyrimidin-4-yloxy)phenyl)urea]"
≤ 10 µM,≤ 10 µM,≤ 10 µM,"CN1CCC(OCc2cc(NC(=O)Nc3ccc(Oc4ccnc(-c5nnco5)c4)cc3)cc(C(F)(F)F)c2)CC1 [Example 47, 1-(4-(2-(1,3,4-Oxadiazol-2-yl)pyridin-4-yloxy)phenyl)-3-(3-((1-methylpiperidin-4-yloxy)methyl)-5-(trifluoromethyl)phenyl)urea]"
≤ 10 µM,≤ 10 µM,≤ 10 µM,"O=C(Nc1cccc(Oc2cc(-c3nnco3)ncn2)c1)Nc1ccc(C(F)(F)F)c(Cl)c1 [Example 48, 1-(3-(6-(1,3,4-Oxadiazol-2-yl)pyrimidin-4-yloxy)phenyl)-3-(3-chloro-4-(trifluoromethyl)phenyl)urea]"
≤ 10 µM,> 10 µM,> 10 µM,"O=C(Nc1cccc(Oc2cc(-c3cnn(Cc4ccccc4)c3)ncn2)c1)Nc1ccc(Cl)c(C(F)(F)F)c1 [Example 49, 1-(3-(6-(1-Benzyl-1H-pyrazol-4-yl)pyrimidin-4-yloxy)phenyl)-3-(4-chloro-3-(trifluoromethyl)phenyl)urea]"
≤ 10 µM,≤ 10 µM,≤ 10 µM,"CN(C)CCNc1nc(-c2cc(Oc3cccc(NC(=O)Nc4ccc(Cl)c(C(F)(F)F)c4)c3)ncn2)cs1 [Example 50, 1-(4-Chloro-3-(trifluoromethyl)phenyl)-3-(3-(6-(2-(2-(dimethylamino)ethylamino)thiazol-4-yl)pyrimidin-4-yloxy)phenyl)urea]"
≤ 10 µM,≤ 10 µM,≤ 10 µM,"Cc1cn(-c2cc(NC(=O)Nc3ccc(Oc4cc(-c5cnn(C)c5)ncn4)cc3)cc(C(F)(F)F)c2)cn1 [Example 51, 1-(3-(4-Methyl-1H-imidazol-1-yl)-5-(trifluoromethyl)phenyl)-3-(4-(6-(1-methyl-1H-pyrazol-4-yl)pyrimidin-4-yloxy)phenyl)urea]"
≤ 10 µM,≤ 10 µM,≤ 10 µM,"COCCOc1ccc(NC(=O)Nc2ccc(Oc3cc(-c4cnn(C)c4)ncn3)cc2)cc1C(F)(F)F [Example 52, 1-(4-(2-Methoxyethoxy)-3-(trifluoromethyl)phenyl)-3-(4-(6-(1-methyl-1H-pyrazol-4-yl)pyrimidin-4-yloxy)phenyl)urea]"
> 10 µM,≤ 10 µM,≤ 10 µM,"COCCOc1ccc(NC(=O)Nc2ccc(Oc3cc(-c4nnco4)ncn3)cc2)cc1C(F)(F)F [Example 53, 1-(4-(6-(1,3,4-Oxadiazol-2-yl)pyrimidin-4-yloxy)phenyl)-3-(4-(2-methoxyethoxy)-3-(trifluoromethyl)phenyl)urea]"
≤ 10 µM,≤ 10 µM,≤ 10 µM,"COC(=O)Cn1cc(-c2cc(Oc3cccc(NC(=O)Nc4ccc(Cl)c(C(F)(F)F)c4)c3)ncn2)cn1 [Example 54, Methyl 2-(4-(6-(3-(3-(4-chloro-3-(trifluoromethyl)phenyl)ureido)phenoxy)pyrimidin-4-yl)-1H-pyrazol-1-yl)acetate]"
≤ 10 µM,≤ 10 µM,≤ 10 µM,"CNC(=O)Cn1cc(-c2cc(Oc3cccc(NC(=O)Nc4ccc(Cl)c(C(F)(F)F)c4)c3)ncn2)cn1 [Example 56, 2-(4-(6-(3-(3-(4-Chloro-3-(trifluoromethyl)phenyl)ureido)phenoxy)pyrimidin-4-yl)-1H-pyrazol-1-yl)-N-methylacetamide]"
≤ 10 µM,≤ 10 µM,≤ 10 µM,"Cn1cc(-c2cc(Oc3cc(NC(=O)Nc4ccc(Cl)c(C(F)(F)F)c4)c(F)cc3F)ncn2)cn1 [Example 57, 1-(4-Chloro-3-(trifluoromethyl)phenyl)-3-(2,4-difluoro-5-(6-(1-methyl-1H-pyrazol-4-yl)pyrimidin-4-yloxy)phenyl)urea]"
≤ 10 µM,≤ 10 µM,≤ 10 µM,"COC(=O)Cn1ccc(-c2cc(Oc3cccc(NC(=O)Nc4ccc(Cl)c(C(F)(F)F)c4)c3)ncn2)n1 [Example 58, Methyl 2-(3-(6-(3-(3-(4-chloro-3-(trifluoromethyl)phenyl)ureido)phenoxy)pyrimidin-4-yl)-1H-pyrazol-1-yl)acetate]"
≤ 10 µM,≤ 10 µM,≤ 10 µM,"NC(=O)Cn1ccc(-c2cc(Oc3cccc(NC(=O)Nc4ccc(Cl)c(C(F)(F)F)c4)c3)ncn2)n1 [Example 59, 2-(3-(6-(3-(3-(4-Chloro-3-(trifluoromethyl)phenyl)ureido)phenoxy)pyrimidin-4-yl)-1H-pyrazol-1-yl)acetamide]"
≤ 10 µM,≤ 10 µM,≤ 10 µM,"CNC(=O)Cn1ccc(-c2cc(Oc3cccc(NC(=O)Nc4ccc(Cl)c(C(F)(F)F)c4)c3)ncn2)n1 [Example 60, 2-(3-(6-(3-(3-(4-Chloro-3-(trifluoromethyl)phenyl)ureido)phenoxy)pyrimidin-4-yl)-1H-pyrazol-1-yl)-N-methylacetamide]"
≤ 10 µM,> 10 µM,> 10 µM,"Cn1ccc(-c2cc(Oc3cccc(NC(=O)Nc4ccc(Cl)c(C(F)(F)F)c4)c3)ncn2)n1 [Example 61, 1-(4-Chloro-3-(trifluoromethyl)phenyl)-3-(3-(6-(1-methyl-1H-pyrazol-3-yl)pyrimidin-4-yloxy)phenyl)urea]"
≤ 10 µM,≤ 10 µM,≤ 10 µM,"Cn1nccc1-c1cc(Oc2cccc(NC(=O)Nc3ccc(Cl)c(C(F)(F)F)c3)c2)ncn1 [Example 62, 1-(4-Chloro-3-(trifluoromethyl)phenyl)-3-(3-(6-(1-methyl-1H-pyrazol-5-yl)pyrimidin-4-yloxy)phenyl)urea]"
≤ 10 µM,> 10 µM,> 10 µM,"O=C(Nc1cccc(Oc2cc(-c3ccn(CCO)n3)ncn2)c1)Nc1ccc(Cl)c(C(F)(F)F)c1 [Example 63, 1-(4-Chloro-3-(trifluoromethyl)phenyl)-3-(3-(6-(1-(2-hydroxyethyl)-1H-pyrazol-3-yl)pyrimidin-4-yloxy)phenyl)urea]"
≤ 10 µM,≤ 10 µM,≤ 10 µM,"N#CCn1cc(-c2cc(Oc3cccc(NC(=O)Nc4ccc(Cl)c(C(F)(F)F)c4)c3)ncn2)cn1 [Example 64, 1-(4-Chloro-3-(trifluoromethyl)phenyl)-3-(3-(6-(1-(cyanomethyl)-1H-pyrazol-4-yl)pyrimidin-4-yloxy)phenyl)urea]"
≤ 10 µM,≤ 10 µM,≤ 10 µM,"Cn1cc(-c2nccc(Oc3cc(NC(=O)Nc4ccc(Cl)c(C(F)(F)F)c4)c(F)cc3F)n2)cn1 [Example 67, 1-(4-Chloro-3-(trifluoromethyl)phenyl)-3-(2,4-difluoro-5-(2-(1-methyl-1H-pyrazol-4-yl)pyrimidin-4-yloxy)phenyl)urea]"
≤ 10 µM,≤ 10 µM,> 10 µM,"CC(C)n1cc(-c2cc(Oc3cccc(NC(=O)Nc4ccc(Cl)c(C(F)(F)F)c4)c3)ncn2)cn1 [Example 68, 1-(4-Chloro-3-(trifluoromethyl)phenyl)-3-(3-(6-(1-isopropyl-1H-pyrazol-4-yl)pyrimidin-4-yloxy)phenyl)urea]"
≤ 10 µM,> 10 µM,> 10 µM,"Cc1nn(C)c(C)c1-c1cc(Oc2cccc(NC(=O)Nc3ccc(Cl)c(C(F)(F)F)c3)c2)ncn1 [Example 69, 1-(4-Chloro-3-(trifluoromethyl)phenyl)-3-(3-(6-(1,3,5-trimethyl-1H-pyrazol-4-yl)pyrimidin-4-yloxy)phenyl)urea]"
